We go through two compounds from patent US20050113419A1, “Therapeutic compounds for treating dyslipidemic conditions” (priority 2003, published 2005).

As usually defined, the Kd is a measure of binding affinity in units of concentration.

Experiment [1] addresses T1, human LXRα (Homo sapiens, UniProt Q13133).
T1 construct: made in house; host or cells: E. coli (pGEX-KT vector)
T1 sequence (Q13133 164-447): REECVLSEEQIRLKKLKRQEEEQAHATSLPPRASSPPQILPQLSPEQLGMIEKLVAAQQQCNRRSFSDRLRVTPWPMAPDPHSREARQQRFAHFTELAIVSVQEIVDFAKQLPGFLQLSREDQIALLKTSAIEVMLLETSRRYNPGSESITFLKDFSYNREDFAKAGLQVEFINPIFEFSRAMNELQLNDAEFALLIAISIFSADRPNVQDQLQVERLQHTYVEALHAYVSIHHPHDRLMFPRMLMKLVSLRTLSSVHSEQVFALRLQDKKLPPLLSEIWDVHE
Briefly: Radioligand competition binding scintillation proximity assay, LXRα. From the text: Radioligand Competition Binding Scintillation Proximity Assays

Experiment [2] concerns Caco-2 cells. Briefly: Cholesterol efflux from cultured human Caco-2 cells. It is filed as cell-based. The settings on record: 10 μg/ml apoA-I, 24 hours, mean of quadruplicate incubations. How it is done:
Caco-2 cells, which are of human origin, were obtained from ATCC and grown in Opti-MEM (Gibco #51985-034) containing 10% FCS, non-essential amino acids (Gibco #11140-050), and vitamins (Gibco # 11120-052). Caco-2 cells were plated at 100,000 cells/well in 48-well plates. After four days the cells had reached confluence, and were then labeled with ^3H-cholesterol by incubation for 24 hours in fresh growth media containing ^3H-cholesterol (10 μCi/mi). Following labeling with ^3H-cholesterol, cells were washed and incubated an additional 24 hours in serum-free media containing 1 mg/ml BSA, to allow for equilibration of ^3H-cholesterol with intracellular cholesterol. Cholesterol efflux was initiated by adding 10 μg/ml apoA-I, with or without compound, in serum-free medium. Compounds were added to cell culture medium from DMSO solutions, and control cells received an equivalent amount of DMSO, never exceeding 0.1%. After 24 hours, media were harvested and cells dissolved in 0.1 M NaOH. Media were briefly centrifuged to remove non-adherent cells, and then aliquots of both the supernatants and the dissolved cells were subjected to liquid scintillation spectrometry to determine radioactivity. Cholesterol efflux is expressed as a percentage, calculated as (^3H-cholesterol in riedium/(^3H-cholesterol in medium+^3H-cholesterol in cells))×100.
In general terms: Passage across Caco-2 layers is used to estimate intestinal permeability.

For `CCCc1c(OCCCSc2ccc(CC(=O)O)cc2Cl)ccc2c(C(F)(F)F)noc12` [Compound A], in experiment [1], the Kd is about 15 nM.
In the case of `CCCc1c(OCCCN(C)C(=O)Nc2ccccn2)ccc2c(C(F)(F)F)noc12` [Compound (18), N′-(2-pyridyl)-N-methyl-N-(3-{[7-propyl-3-(trifluoromethyl)-1,2-benzisoxazol-6-yl]oxy}propyl)urea], the “% cholesterol efflux” value in experiment [2] (compound 30 nM) worked out at 3.4%; in experiment [2] (compound 100 nM), 3.5%; in experiment [2] (compound 300 nM), 4.9%; in experiment [2] (compound 1000 nM), 5.7%; in experiment [2] (compound 3000 nM), 6.8%; in experiment [2] (compound 10000 nM) it was 5.6%.
